A value given as a limit tells only on which side of the number the result lay.

Here are results for two molecules from US9365572B2, “PI3K and/or mTOR inhibitor” (XUANZHU PHARMA CO., LTD., priority 2012, dated 2016).

One experiment has as its target BRAF V600E (Homo sapiens (Human), UniProt P15056, V600E). The experiment is described as follows: Kinase selectivity, Lanthascreen analysis method. It counts as biochemical. In general terms: In TR-FRET formats the signal depends on donor and acceptor labels being close together.
A further experiment deals with Adrenergic β1 (Homo sapiens (Human), UniProt P08588). The experiment is described as follows: Radioligand binding assay No. 204010. As to conditions: test substance 10 μM, read-out: Inhibitory rate (%), Adrenergic β1.
In the next experiment the target is Adrenergic β2 (Homo sapiens (Human), UniProt P07550). The experiment is described as follows: Radioligand binding assay No. 204110. Particulars: test substance 10 μM, read-out: Inhibitory rate (%), Adrenergic β2.
For experiment [1], the system named is Calcium Channel L-Type, Dihydropyridine. In words: Radioligand binding assay No. 214600. Particulars: test substance 10 μM; rat.
Another experiment deals with Dopamine D3 (Homo sapiens (Human), UniProt P35462). In words: Radioligand binding assay No. 219800. As to conditions: test substance 10 μM, read-out: Inhibitory rate (%), Dopamine D3.
Experiment [2] has as its target Epidermal Growth Factor (EGF) (Homo sapiens (Human), UniProt P00533). The experiment is described as follows: Radioligand binding assay No. 225510. As to conditions: test substance 10 μM, read-out: Inhibitory rate (%), Epidermal Growth Factor (EGF).
Experiment [3] relates to GABAA, Flunitrazepam, Central. In words: Radioligand binding assay No. 226600. As to conditions: test substance 10 μM; rat.
For the next experiment, the system named is Glutamate, Kainate. In words: Radioligand binding assay No. 232700. As to conditions: test substance 10 μM; rat.
A further experiment has as its system Glutamate, NMDA, Agonism. In words: Radioligand binding assay No. 232810. As to conditions: test substance 10 μM; rat.
For experiment [4], the system named is Glutamate, NMDA, Phencyclidine. The experiment is described as follows: Radioligand binding assay No. 233000. Particulars: test substance 10 μM; rat.
In another experiment the target is Histamine H1 (Homo sapiens (Human), UniProt P35367). The experiment is described as follows: Radioligand binding assay No. 239610. As to conditions: test substance 10 μM, read-out: Inhibitory rate (%), Histamine H1.
In a further experiment the test system is ImidazolineI2, Central. The experiment is described as follows: Radioligand binding assay No. 241000. Particulars: test substance 10 μM; rat.
Another experiment addresses Opiate κ(OP2, KOP) (Homo sapiens (Human), UniProt P41145). In words: Radioligand binding assay No. 260210. Particulars: test substance 10 μM, read-out: Inhibitory rate (%), Opiate κ(OP2, KOP).
Another experiment relates to Potassium Channel [KATP]. In words: Radioligand binding assay No. 265600. As to conditions: test substance 10 μM; Human.
The next experiment concerns Purinergic P2X. The experiment is described as follows: Radioligand binding assay No. 268700. As to conditions: test substance 10 μM; rabbit.
Another experiment relates to Purinergic P2Y. The experiment is described as follows: Radioligand binding assay No. 268810. As to conditions: test substance 10 μM; rat.
For another experiment, the system named is Sodium Channel, Site2. In words: Radioligand binding assay No. 279510. As to conditions: test substance 10 μM; rat.
Another experiment concerns Lovo. In words: In vitro cytological inhibitory activity (XTT). It counts as cell-based. Particulars: Homo sapiens, 72 hrs. The method, then:
Lovo: Human colon carcinoma cell line;
(§1) 1. Preparation of agents and compounds:
(§2) • 1.1 Preparation of phosphoric acid buffering solution (PBS): 8 g NaCl, 0.2 g KCl, 1.44 g Na2HPO4 and 0.24 g KH2PO4 were weighed and added to 800 mL ultrapure water. The mixture was adjusted to pH=7.4, and ultrapure water was added to the metered volume of IL. Then the autoclaving was conducted for 20 mins. • 1.2 Preparation of XTT detection working solution: 100 mg (2,3-Bis-(2-methoxy-4-nitro-5-sulfophenyl)-2H-tetrazolium-5-carboxanilide); 2,3-bis(2-methoxy-4-nitro-5-sulfophenyl)-5-[(phenylamino)carbonyl]-2H-tetrazolium hydroxide (XTT) powder was weighed, and dissolved under protection from light 300 mL of phenol red-free and serum-free RPMI1640 culture, which had been warmed up to 50° C. The resulting mixture was filtered, packaged and used immediately or in one week. The complete process was conducted under protection from light. • 1.3 Preparation of the test compound • Preparation of the stock solution of the test compound: The test compound powder was dissolved in DMSO in a concentration of 10 mM. • Preparation of the gradiently diluted solution of the test compound: 10 mM of the stock solution of the test compound was successively and gradiently diluted with DMSO by 4 folds for 10 concentrations. […]

The test system of the next experiment is MCF-7. The experiment is described as follows: In vitro cytological inhibitory activity (XTT). As to conditions: Homo sapiens, MCF7, 72 hrs. It counts as cell-based. The method, then: MCF-7: Human breast carcinoma cell line;
as §1, §2
(In general: Tetrazolium dyes change colour on reduction, which living cells bring about.)

The subject of a further experiment is A549. In words: In vitro cytological inhibitory activity (XTT). It counts as cell-based. Particulars: Homo sapiens, 72 hrs. Here is the method:
A549: Human lung cancer cell line;
as §1, §2

The next experiment relates to SKOV-3. The experiment is described as follows: In vitro cytological inhibitory activity (XTT). It counts as cell-based. Particulars: Homo sapiens, SK-OV-3, 72 hrs. The method, then:
SKOV-3: Human ovarian cancer cell line;
as §1, §2

Chain of Epidermal Growth Factor (EGF) (P00533 25-1210): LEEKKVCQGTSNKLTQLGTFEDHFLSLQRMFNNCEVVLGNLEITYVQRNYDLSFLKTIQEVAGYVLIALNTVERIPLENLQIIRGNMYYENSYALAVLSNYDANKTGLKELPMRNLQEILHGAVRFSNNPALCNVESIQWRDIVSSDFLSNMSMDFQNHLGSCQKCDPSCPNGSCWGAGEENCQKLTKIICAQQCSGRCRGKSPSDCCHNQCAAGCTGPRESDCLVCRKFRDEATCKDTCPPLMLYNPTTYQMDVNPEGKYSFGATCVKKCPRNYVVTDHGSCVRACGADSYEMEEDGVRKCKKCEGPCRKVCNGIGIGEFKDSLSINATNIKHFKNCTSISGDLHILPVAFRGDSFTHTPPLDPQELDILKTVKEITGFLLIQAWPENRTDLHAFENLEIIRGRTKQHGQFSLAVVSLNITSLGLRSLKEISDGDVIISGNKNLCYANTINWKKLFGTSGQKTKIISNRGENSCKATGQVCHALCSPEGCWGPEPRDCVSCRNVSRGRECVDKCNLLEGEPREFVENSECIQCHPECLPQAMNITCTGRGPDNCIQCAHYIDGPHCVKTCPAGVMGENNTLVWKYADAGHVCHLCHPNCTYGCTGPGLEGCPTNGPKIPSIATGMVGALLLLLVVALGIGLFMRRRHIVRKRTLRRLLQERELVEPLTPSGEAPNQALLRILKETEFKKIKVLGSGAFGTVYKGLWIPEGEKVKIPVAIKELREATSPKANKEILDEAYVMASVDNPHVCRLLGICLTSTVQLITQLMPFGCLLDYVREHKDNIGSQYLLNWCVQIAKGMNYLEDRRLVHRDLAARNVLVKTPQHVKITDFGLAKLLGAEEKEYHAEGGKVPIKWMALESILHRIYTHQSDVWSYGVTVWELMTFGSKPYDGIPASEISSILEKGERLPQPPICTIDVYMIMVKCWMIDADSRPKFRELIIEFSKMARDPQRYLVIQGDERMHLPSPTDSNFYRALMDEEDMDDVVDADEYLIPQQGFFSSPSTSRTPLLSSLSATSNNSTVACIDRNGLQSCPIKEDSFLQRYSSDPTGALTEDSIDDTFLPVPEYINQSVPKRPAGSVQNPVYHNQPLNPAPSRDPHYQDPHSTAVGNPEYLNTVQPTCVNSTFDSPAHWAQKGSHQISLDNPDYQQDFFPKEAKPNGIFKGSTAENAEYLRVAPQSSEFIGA
Chain of Adrenergic β2 (P07550 whole entry): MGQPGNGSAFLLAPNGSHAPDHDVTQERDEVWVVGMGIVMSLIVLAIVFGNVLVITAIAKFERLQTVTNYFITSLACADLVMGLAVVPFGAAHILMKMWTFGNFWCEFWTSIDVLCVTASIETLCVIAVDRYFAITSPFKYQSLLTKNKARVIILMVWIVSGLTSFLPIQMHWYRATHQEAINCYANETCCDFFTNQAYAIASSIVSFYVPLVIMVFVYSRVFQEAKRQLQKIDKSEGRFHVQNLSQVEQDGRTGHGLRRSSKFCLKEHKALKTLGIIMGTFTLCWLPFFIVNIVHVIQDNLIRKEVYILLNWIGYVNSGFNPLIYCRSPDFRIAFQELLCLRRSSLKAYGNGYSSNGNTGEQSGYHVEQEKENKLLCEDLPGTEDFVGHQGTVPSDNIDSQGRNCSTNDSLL
Chain of Adrenergic β1 (P08588 whole entry): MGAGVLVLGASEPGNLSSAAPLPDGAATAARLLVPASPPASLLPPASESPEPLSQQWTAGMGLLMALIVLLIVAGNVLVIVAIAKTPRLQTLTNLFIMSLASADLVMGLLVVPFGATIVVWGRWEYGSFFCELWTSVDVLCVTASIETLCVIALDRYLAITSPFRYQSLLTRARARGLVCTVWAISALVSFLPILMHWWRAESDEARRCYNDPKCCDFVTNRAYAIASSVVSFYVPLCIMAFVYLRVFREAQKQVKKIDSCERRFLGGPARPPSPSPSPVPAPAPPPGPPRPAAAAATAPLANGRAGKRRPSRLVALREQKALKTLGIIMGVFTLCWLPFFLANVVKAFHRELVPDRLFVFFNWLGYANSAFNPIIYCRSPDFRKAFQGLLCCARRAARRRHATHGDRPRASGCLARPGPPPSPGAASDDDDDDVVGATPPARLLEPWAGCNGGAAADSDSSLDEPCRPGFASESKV
Chain of BRAF V600E (P15056 whole entry V600E): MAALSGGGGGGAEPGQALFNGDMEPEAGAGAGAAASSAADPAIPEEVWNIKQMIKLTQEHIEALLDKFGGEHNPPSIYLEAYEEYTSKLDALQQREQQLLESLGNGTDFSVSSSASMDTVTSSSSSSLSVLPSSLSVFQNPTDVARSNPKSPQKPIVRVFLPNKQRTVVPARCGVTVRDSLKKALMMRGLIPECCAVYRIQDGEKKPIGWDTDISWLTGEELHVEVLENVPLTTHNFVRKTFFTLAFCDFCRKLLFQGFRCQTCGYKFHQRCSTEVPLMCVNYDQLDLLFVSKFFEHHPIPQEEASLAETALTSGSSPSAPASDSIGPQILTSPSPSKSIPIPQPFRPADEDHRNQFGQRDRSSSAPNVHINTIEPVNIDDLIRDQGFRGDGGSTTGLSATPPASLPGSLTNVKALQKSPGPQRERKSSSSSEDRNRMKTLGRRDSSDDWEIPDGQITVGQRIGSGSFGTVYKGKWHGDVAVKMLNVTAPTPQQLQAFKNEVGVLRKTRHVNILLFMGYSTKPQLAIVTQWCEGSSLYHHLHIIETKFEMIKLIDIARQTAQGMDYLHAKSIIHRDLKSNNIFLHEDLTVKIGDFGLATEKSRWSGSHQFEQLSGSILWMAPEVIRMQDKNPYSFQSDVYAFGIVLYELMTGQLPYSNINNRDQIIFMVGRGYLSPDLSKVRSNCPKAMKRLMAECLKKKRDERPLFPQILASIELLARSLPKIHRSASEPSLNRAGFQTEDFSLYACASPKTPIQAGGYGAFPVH
Chain of Histamine H1 (P35367 whole entry): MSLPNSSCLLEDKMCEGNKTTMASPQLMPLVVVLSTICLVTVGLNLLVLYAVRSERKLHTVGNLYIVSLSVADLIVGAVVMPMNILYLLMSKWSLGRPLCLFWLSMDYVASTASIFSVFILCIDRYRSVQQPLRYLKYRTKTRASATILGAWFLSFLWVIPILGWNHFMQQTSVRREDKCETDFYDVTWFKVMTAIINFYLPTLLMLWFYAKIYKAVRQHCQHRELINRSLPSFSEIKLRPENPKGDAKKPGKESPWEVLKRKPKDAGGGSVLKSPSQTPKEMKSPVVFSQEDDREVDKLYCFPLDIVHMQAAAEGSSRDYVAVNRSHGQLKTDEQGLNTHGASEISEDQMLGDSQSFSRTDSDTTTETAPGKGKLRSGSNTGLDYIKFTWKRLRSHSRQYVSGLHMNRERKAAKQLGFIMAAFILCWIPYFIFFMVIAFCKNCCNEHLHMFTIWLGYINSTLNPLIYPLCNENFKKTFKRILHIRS
Chain of Dopamine D3 (P35462 whole entry): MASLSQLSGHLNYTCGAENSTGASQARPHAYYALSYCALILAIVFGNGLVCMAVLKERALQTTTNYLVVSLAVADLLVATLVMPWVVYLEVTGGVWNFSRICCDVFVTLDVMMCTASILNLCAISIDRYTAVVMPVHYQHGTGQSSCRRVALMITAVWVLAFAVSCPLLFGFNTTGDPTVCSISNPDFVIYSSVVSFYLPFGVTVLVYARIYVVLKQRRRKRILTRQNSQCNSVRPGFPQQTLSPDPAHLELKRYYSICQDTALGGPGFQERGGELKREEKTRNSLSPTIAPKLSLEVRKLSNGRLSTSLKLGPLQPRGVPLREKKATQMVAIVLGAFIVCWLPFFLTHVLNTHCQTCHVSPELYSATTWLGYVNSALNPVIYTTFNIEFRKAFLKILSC
Chain of Opiate κ(OP2, KOP) (P41145 whole entry): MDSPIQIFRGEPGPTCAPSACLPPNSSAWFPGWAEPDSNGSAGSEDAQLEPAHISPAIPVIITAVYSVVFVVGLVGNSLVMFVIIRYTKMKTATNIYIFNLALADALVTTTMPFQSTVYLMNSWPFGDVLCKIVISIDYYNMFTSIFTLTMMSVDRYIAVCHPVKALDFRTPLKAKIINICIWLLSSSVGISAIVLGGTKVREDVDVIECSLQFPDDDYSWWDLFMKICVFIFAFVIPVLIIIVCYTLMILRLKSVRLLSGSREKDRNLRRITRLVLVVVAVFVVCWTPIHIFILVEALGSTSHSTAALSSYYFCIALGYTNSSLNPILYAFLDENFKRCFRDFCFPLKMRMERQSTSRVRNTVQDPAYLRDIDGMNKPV

In general, IC50 refers to the point on the concentration scale where inhibition reaches its midpoint. Read a high IC50 as lower potency. With `Nc1ccc(-c2ccc3ncc4c(=O)[nH]c(=O)n(-c5cccc(C(F)(F)F)c5)c4c3n2)cn1` [Compound 5, 9-(6-aminopyridin-3-yl)-1-(3-(trifluoromethyl)phenyl)pyrimido[5,4-c][1,5]naphthyridine-2,4(1H,3H)-dione], the IC50 against BRAF V600E was > 10000 nM; in the experiment on Lovo, 50.1 nM; with MCF-7, 28.2 nM. Moreover, the inhibition at 10 µM was found to be 0% at Adrenergic β1; 17% on Adrenergic β2; 15% at Dopamine D3; 11% in experiment [2]; 10% at Histamine H1; 10% at Opiate κ(OP2, KOP). For the same molecule, the “Inhibitory rate (%), Calcium Channel L-Type, Dihydropyridine” value in experiment [1] is 56%. Further, the “Inhibitory rate (%), GABAA, Flunitrazepam, Central” value in experiment [3] is recorded as 34%. In addition, the “Inhibitory rate (%), Glutamate, Kainate” value in the experiment with Glutamate, Kainate is 35%. Besides, the “Inhibitory rate (%), Glutamate, NMDA, Agonism” value with Glutamate, NMDA, Agonism was 29%. For the same molecule, the “Inhibitory rate (%), Glutamate, NMDA, Phencyclidine” value in experiment [4] came to 8%. Also, in the experiment with ImidazolineI2, Central, the “Inhibitory rate (%), ImidazolineI2, Central” value was 0%. Further, the “Inhibitory rate (%), Potassium Channel [KATP]” value in the experiment with Potassium Channel [KATP] is 11%. Also, the “Inhibitory rate (%), Purinergic P2X” value in the experiment on Purinergic P2X was determined as 9%. Also, in the experiment with Purinergic P2Y, the “Inhibitory rate (%), Purinergic P2Y” value was determined as 9%. The “Inhibitory rate (%), Sodium Channel, Site2” value with Sodium Channel, Site2 stood at 7%.
In the case of `O=c1[nH]c(=O)n(-c2cccc(C(F)(F)F)c2)c2c1cnc1ccc(-c3cnc4[nH]ccc4c3)nc12` [Compound 30, 9-(1H-pyrrolo[2,3-b]pyridin-5-yl)-1-(3-(trifluoromethyl)phenyl)pyrimido[5,4-c][1,5]naphthyridine-2,4(1H,3H)-dione], the half-inhibitory concentration (IC50) in the experiment on A549 is 107 nM; in the experiment with SKOV-3, 57.2 nM.
